Experiments:
[1] = system: SMN2 minigene mRNA (SMN2-A minigene) in HEK293H cells; assay: SMN2 minigene mRNA splicing RT-qPCR assay in cultured cells; assay type: cell-based, human; conditions: Homo sapiens, HEK293-H; concentration increasing full length SMN2 mRNA 1.5-fold relative to vehicle-treated cells; HEK293H cells with SMN2-A minigene, 24 hours, 7-point concentration data; read-out: EC1.5x for production of full length SMN2 mRNA
Summary of the method: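 HEK293H cells stably carrying the SMN2-A minigene were treated for 24 h at 37 °C with a 7-point, 3.16-fold dilution series of compound. Multiplex RT-qPCR measured exon 7-containing minigene FL mRNA against GAPDH, expressed relative to vehicle by modified ΔΔCt; the EC1.5× is the concentration giving a 1.5-fold increase.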

[2] = system: Smn protein in SMA patient fibroblast cells (GM03813); assay: Smn protein assay in cultured cells (SMN HTRF); assay type: cell-based, human; conditions: SMA patient fibroblast cells, 48 hours; for EC1.5x for Smn protein expression: 7-point concentration curve, SMN HTRF, concentration producing 1.5 times Smn protein vs DMSO vehicle control; for maximum fold (Fold) increase of Smn protein: 7-point concentration data, fold relative to vehicle control
Summary of the method: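 SMA patient fibroblasts (5,000 cells/well, DMEM-10% FBS) were treated for 48 h at 37 °C with a 7-point, 3.16-fold dilution series in triplicate. RIPA lysates were probed by HTRF (anti-SMN d2/kryptate, overnight, room temperature), reading 665/620 nm. EC1.5× is the concentration giving 1.5-fold Smn over DMSO vehicle.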

| melting point [°C] | SMILES | EC (1.5-fold increase) [1] [µM] | EC1.5x for Smn protein expression [2] | maximum fold (Fold) increase of Smn protein [2] |
| --- | --- | --- | --- | --- |
| 229 to 231 | Cc1cn2nc(-c3cc(=O)n4cc(N5CC[C@H](CN(C)C)C5)ccc4n3)cc2c(C)n1 [Compound 799, 7-{(3R)-3-[(dimethylamino)methyl]pyrrolidin-1-yl}-2-(4,6-dimethylpyrazolo[1,5-a]pyrazin-2-yl)-4H-pyrido[1,2-a]pyrimidin-4-one] | < 0.1 | **** (an EC1.5x≤0.3 μM is indicated by four stars (****)) | ***** (a fold increase >1.65 is indicated by five stars (*****)) |
| 175 to 179 | COc1ccc(-c2cnc3cc(N4CCNCC4)ccn3c2=O)cc1OC [Cpd 52, 3-(3,4-dimethoxyphenyl)-8-(piperazin-1-yl)-4H-pyrido[1,2-a]pyrimidin-4-one] | 3 to 30 | – | * (A maximum fold increase of ≤1.2 is indicated by one star (*)) |
| 185 to 187 | COc1ccc(-c2cc(=O)n3cc(N4CCNCC4)cc(OC)c3n2)cc1OC [Cpd 70, 2-(3,4-dimethoxyphenyl)-9-methoxy-7-(piperazin-1-yl)-4H-pyrido[1,2-a]pyrimidin-4-one] | 1 to 3 | – | * (A maximum fold increase of ≤1.2 is indicated by one star (*)) |
| 221 to 225 | Cc1cn2cc(-c3cc(=O)n4cc(N5CCNCC5)ccc4n3)nc2cn1 [Cpd 74, 2-(6-methylimidazo[1,2-a]pyrazin-2-yl)-7-(piperazin-1-yl)-4H-pyrido[1,2-a]pyrimidin-4-one] | < 0.1 | *** (an EC1.5× between >0.3 μM and ≤1 μM is indicated by three stars (***)) | ***** (a fold increase >1.65 is indicated by five stars (*****)) |
| 158 to 162 | COc1ccc(-c2cc(=O)n3cc(N4CCNCC4)ccc3n2)cc1OC(F)(F)F [Cpd 81, 2-[4-methoxy-3-(trifluoromethoxy)phenyl]-7-(piperazin-1-yl)-4H-pyrido[1,2-a]pyrimidin-4-one] | 0.3 to 1 | – | ** (a fold increase between >1.2 and ≤1.35 is indicated by two stars (**)) |
| 199 to 202 | COc1ccc(-c2cc(=O)n3cc(N4CCNCC4)ccc3c2C#N)cc1OC [Cpd 85, 2-(3,4-dimethoxyphenyl)-4-oxo-7-(piperazin-1-yl)-4H-quinolizine-1-carbonitrile] | 1 to 3 | * (An EC1.5× for Smn protein expression between >3 μM and ≤10 μM is indicated by one star (*)) | *** (a fold increase between >1.35 and ≤1.5 is indicated by three stars (***)) |
| 201 to 208 | O=c1cc(-c2cncc(F)c2)nc2ccc(N3CCNCC3)cn12 [Cpd 92, 2-(5-fluoropyridin-3-yl)-7-(piperazin-1-yl)-4H-pyrido[1,2-a]pyrimidin-4-one] | 1 to 3 | – | ** (a fold increase between >1.2 and ≤1.35 is indicated by two stars (**)) |
| 266 to 272 | O=c1cc(-c2ccc3[nH]ccc3c2)nc2ccc(N3CCNCC3)cn12 [Cpd 98, 2-(1H-indol-5-yl)-7-(piperazin-1-yl)-4H-pyrido[1,2-a]pyrimidin-4-one] | 1 to 3 | – | *** (a fold increase between >1.35 and ≤1.5 is indicated by three stars (***)) |
| 170 to 172 | COc1ccc(-c2cc(=O)n3cc(N4CCNCC4)ccc3c2)cc1OC [Cpd 106, 2-(3,4-dimethoxyphenyl)-7-(piperazin-1-yl)-4H-quinolizin-4-one] | 0.3 to 1 | ** (an EC1.5× between >1 μM and ≤3 μM is indicated by two stars (**)) | **** (a fold increase between >1.5 and ≤1.65 is indicated by four stars (****)) |
| 258 to 270 | O=c1cc(-c2ccn3ccnc3c2)nc2ccc(N3CCNCC3)cn12 [Cpd 107, 2-(imidazo[1,2-a]pyridin-7-yl)-7-(piperazin-1-yl)-4H-pyrido[1,2-a]pyrimidin-4-one] | 0.3 to 1 | – | ** (a fold increase between >1.2 and ≤1.35 is indicated by two stars (**)) |

The next lines start with the compound.

| SMILES | melting point [°C] | EC (1.5-fold increase) [1] [µM] | EC1.5x for Smn protein expression [2] | maximum fold (Fold) increase of Smn protein [2] |
| --- | --- | --- | --- | --- |
| Cc1cn2nc(-c3cc(=O)n4cc(N5CC[C@H](CN)C5)ccc4n3)cc2c(C)n1 [Compound 797, 7-[(3R)-3-(aminomethyl)pyrrolidin-1-yl]-2-(4,6-dimethylpyrazolo[1,5-a]pyrazin-2-yl)-4H-pyrido[1,2-a]pyrimidin-4-one] | 214 to 217 | 1 to 3 | * (An EC1.5× for Smn protein expression between >3 μM and ≤10 μM is indicated by one star (*)) | *** (a fold increase between >1.35 and ≤1.5 is indicated by three stars (***)) |
| Cc1cn2nc(-c3cc(=O)n4cc(C5C[C@H](C)N[C@@H](C)C5)ccc4n3)cc2c(C)n1 (stereo partly drawn) [Compound 800, 7-[(2S,6S)-2,6-dimethylpiperidin-4-yl]-2-(4,6-dimethylpyrazolo[1,5-a]pyrazin-2-yl)-4H-pyrido[1,2-a]pyrimidin-4-one] | 248 to 250 | < 0.1 | **** (an EC1.5x≤0.3 μM is indicated by four stars (****)) | ***** (a fold increase >1.65 is indicated by five stars (*****)) |
| COc1ccc(-c2cc(=O)n3cc(N4CCNCC4)ccc3n2)cc1 [Cpd 1, 2-(4-methoxyphenyl)-7-(piperazin-1-yl)-4H-pyrido[1,2-a]pyrimidin-4-one] | 182 to 184 | 0.3 to 1 | – | ** (a fold increase between >1.2 and ≤1.35 is indicated by two stars (**)) |
| Cc1ccc2nc(-c3cc(=O)n4cc(N5CCNCC5)ccc4n3)cn2c1 [Cpd 29, 2-(6-methylimidazo[1,2-a]pyridin-2-yl)-7-(piperazin-1-yl)-4H-pyrido[1,2-a]pyrimidin-4-one] | 193 to 198 | 3 to 30 | – | *** (a fold increase between >1.35 and ≤1.5 is indicated by three stars (***)) |
| COc1ccc(-c2cc(=O)n3cc(N4CCNCC4)ccc3n2)cc1F [Cpd 72, 2-(3-fluoro-4-methoxyphenyl)-7-(piperazin-1-yl)-4H-pyrido[1,2-a]pyrimidin-4-one] | 191 to 195 | < 0.1 | *** (an EC1.5× between >0.3 μM and ≤1 μM is indicated by three stars (***)) | *** (a fold increase between >1.35 and ≤1.5 is indicated by three stars (***)) |
| O=c1cc(-c2ccc(O)c(OC(F)(F)F)c2)nc2ccc(N3CCNCC3)cn12 [Cpd 82, 2-[4-hydroxy-3-(trifluoromethoxy)phenyl]-7-(piperazin-1-yl)-4H-pyrido[1,2-a]pyrimidin-4-one] | 245 to 248 | 1 to 3 | ** (an EC1.5× between >1 μM and ≤3 μM is indicated by two stars (**)) | ***** (a fold increase >1.65 is indicated by five stars (*****)) |
| COc1ccc(-c2cc(=O)n3cc(N4CCN[C@@H](C)C4)ccc3c2)cc1OC [Cpd 91, 2-(3,4-dimethoxyphenyl)-7-[(3S)-3-methylpiperazin-1-yl]-4H-quinolizin-4-one] | 243 to 245 | 1 to 3 | – | ** (a fold increase between >1.2 and ≤1.35 is indicated by two stars (**)) |
| Cc1cn2cc(-c3cc(=O)n4cc(N5CCNCC5)ccc4n3)ccc2n1 [Cpd 109, 2-(2-methylimidazo[1,2-a]pyridin-6-yl)-7-(piperazin-1-yl)-4H-pyrido[1,2-a]pyrimidin-4-one] | 259 to 267 | < 0.1 | **** (an EC1.5x≤0.3 μM is indicated by four stars (****)) | **** (a fold increase between >1.5 and ≤1.65 is indicated by four stars (****)) |
| O=c1cc(-c2cnc3[nH]ccc3c2)nc2ccc(N3CCNCC3)cn12 [Cpd 128, 7-(piperazin-1-yl)-2-(1H-pyrrolo[2,3-b]pyridin-5-yl)-4H-pyrido[1,2-a]pyrimidin-4-one] | 252 to 255 | 0.3 to 1 | – | *** (a fold increase between >1.35 and ≤1.5 is indicated by three stars (***)) |
| COc1ccc(-c2cc(=O)n3cc(C4=CCNCC4)ccc3n2)cc1OC [Cpd 143, 2-(3,4-dimethoxyphenyl)-7-(1,2,3,6-tetrahydropyridin-4-yl)-4H-pyrido[1,2-a]pyrimidin-4-one] | 196 to 198 | < 0.1 | **** (an EC1.5x≤0.3 μM is indicated by four stars (****)) | ***** (a fold increase >1.65 is indicated by five stars (*****)) |
| COc1ccc(-c2cc(=O)n3cc(C4CCNCC4)ccc3n2)cc1OC [Cpd 144, 2-(3,4-dimethoxyphenyl)-7-(piperidin-4-yl)-4H-pyrido[1,2-a]pyrimidin-4-one] | 214 to 217 | < 0.1 | **** (an EC1.5x≤0.3 μM is indicated by four stars (****)) | **** (a fold increase between >1.5 and ≤1.65 is indicated by four stars (****)) |

Reference: US11753407B2, “Compounds for treating spinal muscular atrophy” (PTC Therapeutics, Inc., priority 2012, dated 2023)
